The values that follow are results of earlier work, collected in patent US11589577B2, “Nanotechnology system for agricultural applications” (priority 2012, dated 2023).

The conditions of this data set: binds soil ions; stated as known issue.

In the case of abamectin, the “soil mobility (general statement)” value was “poor soil mobility”.
